What was measured:
[1] = tested on: A2780 ovarian cells; experiment: A2780 ovarian cell proliferation assay in lipid reduced medium, without palmitate (MTT); assay type: cell-based; details: Homo sapiens, A2780, 96 h; read-out: pIC50 A2780 Ovarian Cell, Without Palmitate (converted)
[2] = target: Fatty Acid Synthase Keto-reductase Domain (FASN KR) (Homo sapiens, UniProt P49327); experiment: Fatty Acid Synthase keto-reductase domain (FASN KR) inhibition, NADPH oxidation at 340 nm
Experimental: After 20 minutes incubation at room temperature the plate was measured again (T2).
The decrease in absorbance was calculated as (Absorbance before incubation T1)−(Absorbance following incubation T2).
A plot of Controlmin versus test compound concentration was fitted to a 4-parameter logistic curve using a non-linear least squares regression method.

[3] = tested on: A2780 ovarian cells; experiment: A2780 ovarian cell proliferation assay in lipid reduced medium, with palmitate (MTT); assay type: cell-based; details: Homo sapiens, A2780, 96 h; read-out: pIC50 A2780 Ovarian Cell, With Palmitate (converted)
Procedure, shortened: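 Seeded cells were switched next day to lipid-reduced serum, exposed to compound and 25 μM palmitate complexed with fatty-acid-free BSA, and incubated 96 h. Proliferation was then determined by MTT absorbance at 544 nm, with a best-fit curve of signal against concentration.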

[4] = target: T1, hFASN enzyme (full length) (Homo sapiens, UniProt P49327); experiment: Fatty Acid Synthase (FASN) inhibition scintillation proximity assay; assay type: biochemical; details: for inhibition at 10 µM: read-out: Human FASN % inhibition @ 10 μM, 10 μM test compound; for IC50: read-out: Human FASN pIC50 (converted)
T1 construct: 10 μL hFASN enzyme (full length, 300 ng, purified in house); made in house
Procedure, shortened: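 Purified full-length hFASN (300 ng) converts ^3H-acetyl-CoA plus malonyl-CoA to ^3H-palmitate in 100 mM KH2PO4 pH 7.5, 1 mM DTT; compounds tested at 0.01–30 μM. Product captured on streptavidin imaging beads and read by LEADseeker at 610 nm after ≥24 h; 4-parameter logistic fit versus controls.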

[5] = tested on: PC-3M-Luc-C6 prostate cells; experiment: In vitro PC-3M-Luc-C6 prostate cell proliferation assay in lipid reduced medium; assay type: cell-based; details: 96 h, read-out: pIC50 PC-3M-Luc-C6 prostate cell (converted)
[6] = tested on: LNCaP-Vancouver prostate cells; experiment: In vitro LNCaP Vancouver prostate cell proliferation assay in lipid reduced medium; assay type: cell-based; details: read-out: pIC50 LNCaP_Vancouver prostate cell (converted)

T1 sequence (P49327 whole entry): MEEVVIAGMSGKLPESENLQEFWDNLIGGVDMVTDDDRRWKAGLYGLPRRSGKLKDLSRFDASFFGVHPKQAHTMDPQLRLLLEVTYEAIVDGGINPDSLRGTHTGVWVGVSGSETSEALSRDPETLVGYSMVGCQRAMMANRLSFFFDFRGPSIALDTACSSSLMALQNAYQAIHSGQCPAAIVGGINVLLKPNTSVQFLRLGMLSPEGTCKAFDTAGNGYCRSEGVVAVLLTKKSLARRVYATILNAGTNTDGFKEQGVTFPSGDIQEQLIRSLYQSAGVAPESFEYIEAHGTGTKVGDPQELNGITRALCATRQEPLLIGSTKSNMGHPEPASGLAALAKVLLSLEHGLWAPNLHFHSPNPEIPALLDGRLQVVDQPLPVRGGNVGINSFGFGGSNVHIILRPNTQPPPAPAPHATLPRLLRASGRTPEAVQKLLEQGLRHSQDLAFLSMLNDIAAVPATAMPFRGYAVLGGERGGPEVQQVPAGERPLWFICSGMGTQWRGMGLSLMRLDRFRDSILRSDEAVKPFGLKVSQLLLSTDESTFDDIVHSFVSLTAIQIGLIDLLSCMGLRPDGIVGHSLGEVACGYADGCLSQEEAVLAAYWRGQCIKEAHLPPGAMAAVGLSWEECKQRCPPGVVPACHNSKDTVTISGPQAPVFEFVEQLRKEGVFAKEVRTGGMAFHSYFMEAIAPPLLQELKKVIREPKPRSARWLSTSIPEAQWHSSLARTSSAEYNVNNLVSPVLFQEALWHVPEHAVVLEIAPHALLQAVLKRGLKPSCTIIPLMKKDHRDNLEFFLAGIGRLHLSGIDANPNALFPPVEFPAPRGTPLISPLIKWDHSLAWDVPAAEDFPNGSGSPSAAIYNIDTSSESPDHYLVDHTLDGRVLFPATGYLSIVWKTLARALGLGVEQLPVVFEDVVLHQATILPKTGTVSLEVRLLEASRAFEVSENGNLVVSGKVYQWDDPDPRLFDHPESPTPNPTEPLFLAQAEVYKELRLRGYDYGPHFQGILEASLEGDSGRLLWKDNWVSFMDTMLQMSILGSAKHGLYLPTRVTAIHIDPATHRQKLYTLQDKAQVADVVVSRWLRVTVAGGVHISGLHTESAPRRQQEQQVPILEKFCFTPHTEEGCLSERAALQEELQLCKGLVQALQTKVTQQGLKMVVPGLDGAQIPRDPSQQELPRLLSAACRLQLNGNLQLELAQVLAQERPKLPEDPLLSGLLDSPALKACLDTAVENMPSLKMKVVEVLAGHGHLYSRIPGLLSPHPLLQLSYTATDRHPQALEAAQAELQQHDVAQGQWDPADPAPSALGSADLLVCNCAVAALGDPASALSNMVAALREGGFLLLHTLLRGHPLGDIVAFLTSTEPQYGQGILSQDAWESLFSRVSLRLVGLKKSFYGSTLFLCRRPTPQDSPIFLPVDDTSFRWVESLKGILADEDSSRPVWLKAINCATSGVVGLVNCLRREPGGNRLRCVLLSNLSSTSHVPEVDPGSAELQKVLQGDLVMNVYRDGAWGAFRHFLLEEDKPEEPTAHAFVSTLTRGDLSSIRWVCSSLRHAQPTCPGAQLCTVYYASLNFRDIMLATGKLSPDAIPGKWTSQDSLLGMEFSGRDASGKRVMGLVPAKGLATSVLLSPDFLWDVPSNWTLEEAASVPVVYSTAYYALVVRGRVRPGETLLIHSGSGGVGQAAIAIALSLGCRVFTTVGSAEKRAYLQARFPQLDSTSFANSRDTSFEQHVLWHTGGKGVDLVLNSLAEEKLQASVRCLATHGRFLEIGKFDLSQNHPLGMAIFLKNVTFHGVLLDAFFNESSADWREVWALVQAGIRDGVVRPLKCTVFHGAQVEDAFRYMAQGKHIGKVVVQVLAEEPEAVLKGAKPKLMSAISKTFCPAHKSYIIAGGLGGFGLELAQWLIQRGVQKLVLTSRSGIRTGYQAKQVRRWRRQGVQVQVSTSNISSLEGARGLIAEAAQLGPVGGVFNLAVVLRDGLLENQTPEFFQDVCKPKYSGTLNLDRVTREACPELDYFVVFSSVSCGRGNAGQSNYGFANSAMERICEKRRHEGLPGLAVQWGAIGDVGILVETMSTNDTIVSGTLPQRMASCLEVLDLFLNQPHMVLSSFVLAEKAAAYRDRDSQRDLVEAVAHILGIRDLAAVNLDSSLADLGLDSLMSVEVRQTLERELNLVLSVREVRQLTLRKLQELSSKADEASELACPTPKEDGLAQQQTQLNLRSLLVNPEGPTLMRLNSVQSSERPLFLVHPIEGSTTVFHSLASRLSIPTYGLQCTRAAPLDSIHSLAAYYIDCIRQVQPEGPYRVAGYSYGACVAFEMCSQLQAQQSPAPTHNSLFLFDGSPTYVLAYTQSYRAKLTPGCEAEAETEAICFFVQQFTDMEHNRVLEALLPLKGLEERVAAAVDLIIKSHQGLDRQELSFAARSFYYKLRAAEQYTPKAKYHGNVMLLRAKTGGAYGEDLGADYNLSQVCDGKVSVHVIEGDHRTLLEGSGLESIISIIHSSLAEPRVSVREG
Fatty Acid Synthase Keto-reductase Domain (FASN KR), sequence (P49327 whole entry, the tested form may be a part): as the sequence (P49327 whole entry) above

Row | SMILES | IC50 [1] [nM] | IC50 [2] [nM] | IC50 [3] [nM] | inhibition at 10 µM [4] [%] | IC50 [4] [nM] | IC50 [5] [nM] | IC50 [6] [nM] | Human FASN pIC50 ([4]; hFASN enzyme full length, scintillation proximity assay, "~" = standard error of pIC50 larger than 0.5)
1 | COCc1nn(C)c2cc(-c3ccc(C4=NC5(CC5)C(=O)N4C[C@@H]4CCN(C(=O)C5CC5)C4)cc3)ccc12 [compound 484, 6-{[(3R)-1-(Cyclopropylcarbonyl)pyrrolidin-3-yl]methyl}-5-{4-[3-(methoxymethyl)-1-methyl-1H-indazol-6-yl]phenyl}-4,6-diazaspiro[2.4]hept-4-en-7-one] | 95.5 | 257 | > 10000 | 99 | 151 | 151 | 550 | 
2 | Cn1nccc1-c1ccc(-c2ccc(C3=NC4(CC4)C(=O)N3C[C@@H]3CCN(C(=O)C4(C)CC4)C3)c(F)c2)cc1 [compound 362] | ~42.7 | 126 | > 10000 | 96 | 77.6 | ~56.2 | ~295 | 
3 | O=C(C1CC1)N1CC[C@@H](CN2C(=O)C3(CC3)N=C2c2ccc(-c3ccc4sccc4c3)s2)C1 [compound 425, 5-[5-(1-Benzothiophen-5-yl)thiophen-2-yl]-6-{[(3R)-1-(cyclopropylcarbonyl)pyrrolidin-3-yl]methyl}-4,6-diazaspiro[2.4]hept-4-en-7-one] | ~6920 | 646 | > 10000 | 93 | 275 | 2190 | 3160 | 
4 | O=C([C@H]1CCCO1)N1CC(CN2C(=O)C3(CCOCC3)N=C2c2ccc(-c3ccc4cccnc4c3)cc2)C1 [compound 700, 2-(4-Quinolin-7-ylphenyl)-3-({1-[(2R)-tetrahydro-furan-2-ylcarbonyl]azetidin-3-yl}methyl)-8-oxa-1,3-diazaspiro[4.5]dec-1-en-4-one] | 468 | 832 | > 10000 | 94 | 240 | 1000 | 3390 | 
5 | Cn1cc(-c2ccc(-c3ccc(C4=NC5(CCOC5)C(=O)N4C[C@@H]4CCN(C(=O)[C@H]5CCCO5)C4)cc3)cc2)cn1 (stereo partly drawn) [compound 678, 2-[4′-(1-Methyl-1H-pyrazol-4-yl)biphenyl-4-yl]-3-({(3R)-1-[(2R)-tetrahydro-furan-2-ylcarbonyl]pyrrolidin-3-yl}methyl)-7-oxa-1,3-diazaspiro[4.4]non-1-en-4-one] | 676 | 832 | > 10000 | 95 | 372 | 891 | 3310 | 
6 | Cn1ncc2cc(-c3ccc(C4=NC5(CC5)C(=O)N4C[C@@H]4CCN(C(=O)C5CC5)C4)cn3)ccc21 [compound 421, 6-{[(3R)-1-(Cyclopropylcarbonyl)pyrrolidin-3-yl]methyl}-5-[6-(1-methyl-1H-indazol-5-yl)pyridin-3-yl]-4,6-diazaspiro[2.4]hept-4-en-7-one] | 1150 | 1780 | > 10000 | 94 |  | 1050 | 1290 | 6.34
7 | O=C(C1CC1)N1CC[C@@H](CN2C(=O)C3(CC3)N=C2c2ccc(-c3ccc4occc4c3)nc2)C1 [compound 420, 5-[6-(1-Benzofuran-5-yl)pyridin-3-yl]-6-{[(3R)-1-(cyclopropylcarbonyl)pyrrolidin-3-yl]methyl}-4,6-diazaspiro[2.4]hept-4-en-7-one] | ~2090 | 977 | > 10000 | 92 | 490 | 1660 | 6460 | 
8 | O=C(C1CC1)N1CC[C@@H](CN2C(=O)C3(CC3)N=C2c2ccc(-c3ccc4[nH]ccc4c3)cn2)C1 [compound 341, (R)-5-(5-(1H-indol-5-yl)pyridin-2-yl)-6-((1-(cyclopropanecarbonyl)pyrrolidin-3-yl)methyl)-4,6-diazaspiro[2.4]hept-4-en-7-one] | 132 | 209 | > 6170 | 102 | 64.6 | 126 | 525 | 
9 | Cc1cc(-c2ccc3c(cnn3C)c2)ccc1C1=NC2(CC2)C(=O)N1CC1CN(C(=O)C2(C)COC2)C1 [compound 496, 5-[2-Methyl-4-(1-methyl-1H-indazol-5-yl)phenyl]-6-({1-[(3-methyloxetan-3-yl)carbonyl]azetidin-3-yl}methyl)-4,6-diazaspiro[2.4]hept-4-en-7-one] | 209 | 575 | > 10000 | 94 | 302 | ~355 | 1740 | 

Molecules with a lower IC50 [2], results first:

Row | IC50 [1] [nM] | IC50 [2] [nM] | IC50 [3] [nM] | inhibition at 10 µM [4] [%] | IC50 [4] [nM] | IC50 [5] [nM] | IC50 [6] [nM] | Human FASN pIC50 ([4]; hFASN enzyme full length, scintillation proximity assay, "~" = standard error of pIC50 larger than 0.5) | SMILES
10 | ~2.4 | 40.7 | > 10000 | 100 | 28.8 | ~3.89 | 20.4 |  | Cn1ncc2cc(-c3ccc(C4=NC5(CC5)C(=O)N4C[C@@H]4CCN(C(=O)C5(O)CC5)C4)c(F)c3)ccc21 [compound 370, (R)-5-(2-fluoro-4-(1-methyl-1H-indazol-5-yl)phenyl)-6-((1-(1-hydroxycyclopropanecarbonyl)pyrrolidin-3-yl)methyl)-4,6-diazaspiro[2.4]hept-4-en-7-one]
11 | ~3.72 | 66.1 | 4270 | 102 | 22.4 | ~8.32 | 28.2 |  | Cc1cc(-c2ccc3cc(C#N)ccc3c2)ccc1C1=NC2(CC2)C(=O)N1CC1CN(C(=O)C2(C)CC2)C1 [compound 269, 6-(3-methyl-4-(6-((1-(1-methylcyclopropanecarbbonyl)azetidin-3-yl)methyl)-7-oxo-4,6-diazaspiro[2.4]hept-4-en-5-yl)phenyl)-2-naphthonitrile]
12 | 63.1 | 49 | > 10000 | 102 | 28.8 | ~53.7 | 162 |  | O=C(C1CC1)N1CC[C@@H](CN2C(=O)C3(CC3)N=C2c2ccc(-c3ccc4[nH]c(CO)cc4c3)cc2)C1 [compound 216, (R)-6-((1-(cyclopropanecarbonyl)pyrrolidin-3-yl)methyl)-5-(4-(2-(hydroxymethyl)-1H-indol-5-yl)phenyl)-4,6-diazaspiro[2.4]hept-4-enn-7-one]
13 | 105 | 29.5 | > 10000 | 95 | 25.1 | 67.6 | 447 |  | O=C(C1CC1)N1CC[C@@H](CN2C(=O)C3(CC3)N=C2c2ccc(-c3ccc4cc(F)ccc4c3)cc2F)C1 [compound 259, (R)-6-((1-(cyclopropanecarbonyl)pyrrolidin-3-yl)methyl)-5-(2-fluoro-4-(6-fluoronaphthalen-2-yl)phenyl)-4,6-diazaspiro[2.4]hept-4-en-7-one]
14 | 4.27 | 37.2 | 2090 | 102 | 26.3 | 10 | 45.7 |  | O=C(C1CCO1)N1CC(CN2C(=O)C3(CC3)N=C2c2ccc(-c3ccc4cc(F)ccc4c3)cc2F)C1 (centres unmarked) [compound 369, 5-(2-fluoro-4-(6-fluoronaphthalen-2-yl)phenyl)-6-((1-(oxetan-2-carbonyl)azetidin-3-yl)methyl)-4,6-diazaspiro[2.4]hept-4-en-7-one]
